Experimental data as given in patent US8703106B2, “Chlorine dioxide treatment for biological tissue” (priority 2009, dated 2014).
Where “and” joins values, the source holds several entries; their conditions need not be identical. Equal entries are not always repeated.

Experiments:
[1] = Tooth whitening with multiple contiguous applications, Vita Classic Shade Guide (Example 7); set-up: species or system human; settings: for ΔSVU, Average: average of five teeth; for ΔSVU: nominal 200 ppm (actual 155 ppm) NaCMC gel, pH 5.0, individual teeth A-E, baseline C4
Description: This study was designed to assess the efficacy on tooth whitening of two different regimens of multiple, contiguous applications of a 200 ppm chlorine dioxide gel. Five human extracted teeth (molars) were used in this study. Each tooth was sectioned twice: first at the tooth's cemento-enamel junction to remove the root portion of the tooth; then sectioned mesio-distally to separate the tooth into two, separate buccal and lingual halves. […] The sectioned teeth were then stained in concentrated black tea (cooled to room temperature after brewing) until each tooth accumulated enough stain to be visually graded as “C4” (hut no lighter than “A4”) per the Vita Classic Shade Vision Guide.
After staining, the cut sides of each tooth were sealed with an acrylic polymer (i.e. acrylic-based nail polish). The tooth was then “split” or functionally “divided” into a left and right sides (the tooth was not physically split). To create “dividing line,” a narrow channel was first created down the center of the tooth (running from the occlusal to the gingival or cervical portion of the tooth) using a narrow tungsten carbide or diamond tip dental bur, thereby creating an approximately 0.5 to 1.5-mm deep by 1 to 1.5-mm wide channel on either the buccal or lingual enamel surface of the tooth segment. The channel was etched carefully with a 34-40% phosphoric acid dental etching gel preparation (being careful to confine the gel only to the enamel within the prepared channel). The etching gel was then removed by water rinsing, the Stir face was dried, and a thin, narrow band of enamel-dentin adhesive was then applied carefully only to the enamel within the narrow channel. The material was allowed to dry in ambient air for 1 minute then carefully dried with a gentle stream of compressed air for an additional 10 seconds. The enamel-dentin adhesive was subsequently cured by exposure to a visible light dental curing unit using actinic blue light at an approximate peak wavelength of 470 nm for multiple, 20 second curing increments. In order to fill in the channel and gradually build a “wall” or harrier to separate the left and right half of the lingual surface of the tooth, a thin, narrow layer or band of composite resin dental restorative material was added in several steps and cured with the dental visible blue-light curing unit.
The wall that was built up on each tooth prevents whitening agent applied on the left side of the tooth to migrate into the whitening agent that was applied on the right side of the tooth, and visa versa. In this way, it is possible to compare two different treatment regimens on the same tooth, thereby minimizing the biological diversity among different teeth that may affect whitening efficacy.
Two treatment regimens were tested, both using a nominal 200 ppm chlorine dioxide gel comprising sodium carboxymethylcellulose (NaCMC). The actual concentration of chlorine dioxide was measured and found to be 155 ppm; pH of the composition was 5.0. The general treatment protocol is as follows. […] The 60 ml syringe was used to store the gel during the assay, and for dispensing gel into a 10 ml plastic syringe. The gel in the 10 ml syringe was then dispensed directly onto the tooth section enamel surfaces as follows. At time zero, about 1 to 1.5 ml gel was dispensed onto the enamel surface of each tooth segment attached to the glass microscope slide. The thickness of the resulting gel layer was about 1.5 to 3.0 mm in depth. After dispensing the gel onto the tooth segments, the glass slide was placed in a plastic zippered bag, containing small strips of wet paper towel within the bag to maintain 100% humidity in the bag. The paper towel strips were positioned to eliminate any contact of the plastic bag with the tooth and gel surfaces.
Upon conclusion of a contact epidose, the glass slide was removed from the plastic bag, and the gel was carefully removed with an extra soft bristle toothbrush and a gentle stream of running tap water. […]

[2] = tested on: Pseudomonas aeruginosa (PA) biofilm; assay: Biofilm kill on ceramic disks, clean system (Example 1); type: cell-based; settings: for Log Reduction in Organism Count: PA
Procedure: (§1) A series of experiments were conducted to estimate the dosage of chlorine dioxide needed to kill bacterial biofilms consisting of Pseudomonas acruginosa (PA), methicillin resistant Staphylococcus aureus (MRSA), or a combination of both.
(§2) Bacterial biofilms were grown for between 7 and 10 days on non-porous ceramic disks in a spinning disk biofilm reactor. The reactors were inoculated with PA, MRSA, or a mixture of MRSA and PA bacteria to produce PA, MRSA, or mixed PA/MRSA biofilms respectively.
(§3) Chlorine dioxide solutions were produced at different nominal concentrations using ASEPTROL S-Tab10 tablets, and the exact concentrations were then measured using a Hach Model 2400 UV/Vis spectrophotometer in accordance with the manufacturer's instructions. Pairs of biofilm-containing disks were immersed for different times in solutions of different chlorine dioxide concentrations, neutralized with dilute sodium thiosul fate solution, and then plated to determine the number of surviving bacteria on each disk. Two untreated disks were also exposed to neutralizing solution and plated to determine the starting bacterial counts. In all tests, the baseline bacterial counts were in the range of 10^7 to 10^7.5 colony-forming units per disk (cfu/disk). A one log reduction refers to reducing the cfu/disk by one order of magnitude, e.g., a reduction from 10^7.1 cfu/disk to 10^6.1 cfu/disk. Accordingly, a substantially complete kill is achieved in the example if the log reduction of bacteria is about 7 to 7.5.
(§4) The results are presented in terms of log reduction of the different bacterial organisms. In the case of mixed PA/MRSA biofilms, results are given as total bacteria.

[3] = tested on: methicillin resistant Staphylococcus aureus (MRSA) biofilm; assay: as above; type: cell-based; settings: for Log Reduction in Organism Count: MRSA
Procedure: as §1, §2, §3, §4

[4] = 30 minutes total exposure, Left: 2 × 15 minutes
[5] = 30 minutes total exposure, Right: 4 × 7.5 minutes
[6] = 60 minutes total exposure, Left: 4 × 15 minutes
[7] = 60 minutes total exposure, Right: 8 × 7.5 minutes

## [O][Cl+][O-] [ClO2, chlorine dioxide]
[1]; [4]
  ΔSVU, Average: 11.4 SVU
  ΔSVU: 12 SVU (3×) and 10 SVU and 11 SVU
[1]; [5]
  ΔSVU, Average: 12.6 SVU
  ΔSVU: 15 SVU and 12 SVU (4×)
[1]; [6]
  ΔSVU, Average: 11.8 SVU
  ΔSVU: 12 SVU (4×) and 11 SVU
[1]; [7]
  ΔSVU, Average: 13.6 SVU
  ΔSVU: 15 SVU (2×) and 14 SVU and 12 SVU (2×)
[1]; nominal dosage 6000 ppm-min (30 minutes × 200 ppm)
  improvement of tooth whitening, four applications compared to two applications: about 10%
[1]; nominal dosage 12,000 ppm-min
  improvement of tooth whitening, eight applications over four applications: about 15%
[2]; PA biofilm, clean system (Sample 7)
  dosage achieving a kill of about 5 orders of magnitude (5 log): greater than 200 ppm-min
[2]; Sample 6, 0.5 min, 200 ppm ClO2, 100 ppm-min
  Log Reduction in Organism Count: 5.9 log
[2]; Sample 7, 5.0 min, 43 ppm ClO2, […]-min
  Log Reduction in Organism Count: 5.7 log
[2]; Sample 8, 5.0 min, 187 ppm ClO2, 935 ppm-min
  Log Reduction in Organism Count: 7.5 log
[2]; Sample 9, 10.0 min, 37 ppm ClO2, 370 ppm-min
  Log Reduction in Organism Count: 7.5 log
[2]; Sample 10, 50.0 min, 35 ppm ClO2, 1750 ppm-min
  Log Reduction in Organism Count: 7.5 log
[2]; Sample 11, 50.0 min, 166 ppm ClO2, 8300 ppm-min
  Log Reduction in Organism Count: 7.5 log
[3]; MRSA biofilm, clean system (Sample 1)
  dosage achieving a kill of about 5 orders of magnitude (5 log): greater than 200 ppm-min
[3]; Sample 1, 1.0 min, 208 ppm ClO2, 208 ppm-min
  Log Reduction in Organism Count: 5.5 log
[3]; Sample 2, 5.0 min, 204 ppm ClO2, 1020 ppm-min
  Log Reduction in Organism Count: 7.1 log
[3]; Sample 3 (second line), 30.0 min, 40 ppm ClO2, 1200 ppm-min
  Log Reduction in Organism Count: 5.1 log
[3]; Sample 3, 10.0 min, 45 ppm ClO2, 450 ppm-min
  Log Reduction in Organism Count: 5.5 log
[3]; Sample 4, 30.0 min, 175 ppm ClO2, 5250 ppm-min
  Log Reduction in Organism Count: 7.1 log
